Assay results reported in patent publication US10526316B2, “Quinoxaline and pyridopyrazine derivatives as PI3Kβ inhibitors” (Janssen Pharmaceutica NV, priority 2015, dated 2020).
Read-outs that look alike come from different tables or passages of the source.

Key:
[1] = biological target: T1, PI3Kβ (Homo sapiens, UniProt P42338); test: Enzyme binding assay (KINOMEscan, DiscoveRx); conditions: PIK3Cβ_h, read-out: Kd PIK3Cβ_h
T1 construct: purchased DiscoveRx Corporation, San Diego (contract service, KINOMEscan)
T1 sequence (P42338 whole entry): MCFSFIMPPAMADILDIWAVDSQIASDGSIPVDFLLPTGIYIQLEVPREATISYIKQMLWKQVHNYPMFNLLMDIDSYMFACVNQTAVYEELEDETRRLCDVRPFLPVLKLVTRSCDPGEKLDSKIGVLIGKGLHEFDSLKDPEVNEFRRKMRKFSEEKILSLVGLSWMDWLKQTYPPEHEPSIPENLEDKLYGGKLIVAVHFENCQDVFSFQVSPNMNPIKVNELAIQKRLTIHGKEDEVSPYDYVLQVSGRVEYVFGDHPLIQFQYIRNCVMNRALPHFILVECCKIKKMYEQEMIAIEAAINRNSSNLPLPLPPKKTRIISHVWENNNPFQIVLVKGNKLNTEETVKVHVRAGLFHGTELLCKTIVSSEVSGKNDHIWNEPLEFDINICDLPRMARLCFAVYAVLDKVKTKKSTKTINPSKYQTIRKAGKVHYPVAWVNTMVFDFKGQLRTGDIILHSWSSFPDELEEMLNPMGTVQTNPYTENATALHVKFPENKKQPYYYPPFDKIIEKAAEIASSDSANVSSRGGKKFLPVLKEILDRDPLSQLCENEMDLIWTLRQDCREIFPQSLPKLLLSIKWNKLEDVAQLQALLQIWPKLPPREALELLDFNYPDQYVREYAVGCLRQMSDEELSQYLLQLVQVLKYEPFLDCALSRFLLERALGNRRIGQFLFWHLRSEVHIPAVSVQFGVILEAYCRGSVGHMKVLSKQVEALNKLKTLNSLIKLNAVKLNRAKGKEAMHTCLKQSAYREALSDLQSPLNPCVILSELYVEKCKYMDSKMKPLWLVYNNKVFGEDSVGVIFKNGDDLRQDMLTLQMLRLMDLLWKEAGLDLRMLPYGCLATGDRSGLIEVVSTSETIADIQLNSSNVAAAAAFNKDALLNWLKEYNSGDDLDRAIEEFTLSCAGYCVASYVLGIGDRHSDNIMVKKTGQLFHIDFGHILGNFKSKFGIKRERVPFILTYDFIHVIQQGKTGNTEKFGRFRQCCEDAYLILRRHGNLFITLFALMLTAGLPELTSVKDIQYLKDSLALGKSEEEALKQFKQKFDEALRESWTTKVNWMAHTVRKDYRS
Method in brief: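 Using the KINOMEscan format, the enzyme binding affinity of each compound was determined. Each value is the inhibitor binding constant, Kd (nM).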

[2] = system: Akt phosphorylated at Thr308 in PC-3 cells; test: Cellular assay: phosphorylation of Akt at Thr308 in PC-3 cells (MSD ELISA); format: cell-based; conditions: PC-3 cells, 60 min compound incubation, MSD ELISA, read-out: IC50 pAkt_Thr308
Experimental: (§1) Cellular activity of PI3KP inhibitors was determined by quantifying the phosphorylation of Akt in PC-3 cells. Akt phosphorylated at Ser473 and Thr308 were measured using an enzyme-linked immunosorbent assay (ELISA; Meso Scale Discovery (MSD), Gaithersburg. Md.) and specific primary antibodies from MSD.
(§2) On day 2, compound or DMSO (0.3%) was added and cells were further incubated for 60 min at 37° C. 5% CO2 in a total volume of 100 μl of medium.
(§3) The phosphoprotein assay was executed according to vendor instructions in the Phospho-Akt (Ser473) Assay Whole Cell Lysate Kit (MSD # K15100D-3) and the Phospho-Akt (Thr308) Assay Whole Cell Lysate Kit (MSD # K151DYD-3) using the lysis, blocking and wash buffer provided.
(§4) Briefly, at the end of the cell treatment period, media were removed by aspiration and adherent cells were lysed in 50 μl ice-cold lysis buffer. MSD plates are supplied pre-coated with capture antibodies for Phospho-Akt (Ser473 and Thr308). After blocking, lysates from tissue culture plates were added and plates were washed. Then, a solution containing the detection antibody (anti-total Akt conjugated with an electrochemiluminescent compound-MSD Sulfo-tag label) was added. The signals were detected using an MSD SECTOR Imager 6000 and are proportional to the phospho-Akt titres.
(§5) Data were processed. […] From these concentration-response curves, the IC50 values were calculated. Five concentrations were used for curve fitting.

[3] = biological target: T2, kinase enzymes (Homo sapiens, UniProt P42345); test: Enzyme binding assay (KINOMEscan, DiscoveRx), further kinases of Table A; conditions: MTOR_h
T2 construct: purchased DiscoveRx Corporation, San Diego (contract service, KINOMEscan)
Method in brief: (§6)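 Uses KINOMEscan technology to determine binding affinity toward the kinase enzymes.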

[4] = biological target: T3, kinase enzymes (Homo sapiens, UniProt P48736); test: as above; conditions: PIK3Cγ_h
T3 construct: purchased DiscoveRx Corporation, San Diego (contract service, KINOMEscan)
T3 sequence (P48736 whole entry): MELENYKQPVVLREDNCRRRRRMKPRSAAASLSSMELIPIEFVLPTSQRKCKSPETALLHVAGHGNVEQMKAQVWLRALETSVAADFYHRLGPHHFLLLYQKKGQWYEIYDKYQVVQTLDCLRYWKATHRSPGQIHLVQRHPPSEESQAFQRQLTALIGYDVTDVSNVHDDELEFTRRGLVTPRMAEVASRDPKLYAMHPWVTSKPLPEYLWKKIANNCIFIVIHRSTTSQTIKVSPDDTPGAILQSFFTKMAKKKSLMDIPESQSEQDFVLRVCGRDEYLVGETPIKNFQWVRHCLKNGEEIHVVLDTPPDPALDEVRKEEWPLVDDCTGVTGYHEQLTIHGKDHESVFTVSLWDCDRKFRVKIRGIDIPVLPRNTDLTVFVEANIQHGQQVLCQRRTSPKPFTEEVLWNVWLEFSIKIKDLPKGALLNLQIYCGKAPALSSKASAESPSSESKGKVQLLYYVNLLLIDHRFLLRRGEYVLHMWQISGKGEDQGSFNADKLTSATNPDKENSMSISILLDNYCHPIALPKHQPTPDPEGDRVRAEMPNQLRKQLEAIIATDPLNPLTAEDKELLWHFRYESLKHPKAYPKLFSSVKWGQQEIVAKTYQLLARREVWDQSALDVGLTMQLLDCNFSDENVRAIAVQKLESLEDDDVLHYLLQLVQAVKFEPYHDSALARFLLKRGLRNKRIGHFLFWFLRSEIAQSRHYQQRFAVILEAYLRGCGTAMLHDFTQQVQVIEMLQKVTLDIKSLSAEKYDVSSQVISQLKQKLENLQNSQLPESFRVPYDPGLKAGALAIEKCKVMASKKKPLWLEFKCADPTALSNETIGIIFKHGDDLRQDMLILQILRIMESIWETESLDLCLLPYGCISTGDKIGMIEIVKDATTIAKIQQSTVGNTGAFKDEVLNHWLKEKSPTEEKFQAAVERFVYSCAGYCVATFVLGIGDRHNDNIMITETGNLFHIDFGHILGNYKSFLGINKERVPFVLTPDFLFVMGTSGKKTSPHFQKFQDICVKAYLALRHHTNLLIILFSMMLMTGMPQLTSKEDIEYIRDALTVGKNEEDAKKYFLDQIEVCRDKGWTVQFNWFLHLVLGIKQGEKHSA
Method in brief: as §6

[5] = biological target: T4, kinase enzymes (Homo sapiens, UniProt P42336); test: as above; conditions: PIK3Cα_h
T4 construct: purchased DiscoveRx Corporation, San Diego (contract service, KINOMEscan)
T4 sequence (P42336 whole entry): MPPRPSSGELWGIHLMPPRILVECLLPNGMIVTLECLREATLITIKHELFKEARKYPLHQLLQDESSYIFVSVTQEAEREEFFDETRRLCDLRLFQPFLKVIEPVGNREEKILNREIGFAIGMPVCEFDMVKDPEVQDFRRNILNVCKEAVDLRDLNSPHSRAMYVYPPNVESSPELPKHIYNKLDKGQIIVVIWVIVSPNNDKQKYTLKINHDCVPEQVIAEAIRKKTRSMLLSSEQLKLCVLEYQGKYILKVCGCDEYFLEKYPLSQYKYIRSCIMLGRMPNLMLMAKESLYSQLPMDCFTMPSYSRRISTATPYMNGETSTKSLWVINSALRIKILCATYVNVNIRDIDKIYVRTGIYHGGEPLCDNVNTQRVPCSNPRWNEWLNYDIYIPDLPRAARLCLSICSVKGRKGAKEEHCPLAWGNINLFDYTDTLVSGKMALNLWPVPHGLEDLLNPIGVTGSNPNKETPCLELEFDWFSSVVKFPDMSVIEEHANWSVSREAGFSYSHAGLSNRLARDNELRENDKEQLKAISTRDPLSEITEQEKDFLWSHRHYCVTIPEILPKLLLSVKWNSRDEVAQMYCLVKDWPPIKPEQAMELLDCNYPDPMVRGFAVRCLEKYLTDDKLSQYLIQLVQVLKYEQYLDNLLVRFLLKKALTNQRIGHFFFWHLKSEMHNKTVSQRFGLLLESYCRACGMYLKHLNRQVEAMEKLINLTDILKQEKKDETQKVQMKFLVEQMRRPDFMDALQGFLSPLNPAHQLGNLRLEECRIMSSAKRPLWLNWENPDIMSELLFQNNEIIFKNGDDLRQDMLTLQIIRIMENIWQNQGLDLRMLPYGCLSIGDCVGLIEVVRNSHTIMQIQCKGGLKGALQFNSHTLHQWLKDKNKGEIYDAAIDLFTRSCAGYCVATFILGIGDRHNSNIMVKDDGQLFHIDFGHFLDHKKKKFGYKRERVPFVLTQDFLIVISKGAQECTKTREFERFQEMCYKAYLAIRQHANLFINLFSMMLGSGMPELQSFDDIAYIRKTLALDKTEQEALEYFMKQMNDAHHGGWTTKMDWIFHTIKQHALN
Method in brief: as §6

[6] = system: Akt phosphorylated at Ser473 in PC-3 cells; test: Cellular assay: phosphorylation of Akt at Ser473 in PC-3 cells (MSD ELISA); format: cell-based; conditions: PC-3 cells, 60 min compound incubation, MSD ELISA, read-out: IC50 pAkt_S473
Experimental: as §1, §2, §3, §4, §5

[7] = biological target: T5, PI3Kδ (Homo sapiens, UniProt O00329); test: Enzyme binding assay (KINOMEscan, DiscoveRx); conditions: PIK3Cδ_h
T5 construct: purchased DiscoveRx Corporation, San Diego (contract service, KINOMEscan)
T5 sequence (O00329 1-1044): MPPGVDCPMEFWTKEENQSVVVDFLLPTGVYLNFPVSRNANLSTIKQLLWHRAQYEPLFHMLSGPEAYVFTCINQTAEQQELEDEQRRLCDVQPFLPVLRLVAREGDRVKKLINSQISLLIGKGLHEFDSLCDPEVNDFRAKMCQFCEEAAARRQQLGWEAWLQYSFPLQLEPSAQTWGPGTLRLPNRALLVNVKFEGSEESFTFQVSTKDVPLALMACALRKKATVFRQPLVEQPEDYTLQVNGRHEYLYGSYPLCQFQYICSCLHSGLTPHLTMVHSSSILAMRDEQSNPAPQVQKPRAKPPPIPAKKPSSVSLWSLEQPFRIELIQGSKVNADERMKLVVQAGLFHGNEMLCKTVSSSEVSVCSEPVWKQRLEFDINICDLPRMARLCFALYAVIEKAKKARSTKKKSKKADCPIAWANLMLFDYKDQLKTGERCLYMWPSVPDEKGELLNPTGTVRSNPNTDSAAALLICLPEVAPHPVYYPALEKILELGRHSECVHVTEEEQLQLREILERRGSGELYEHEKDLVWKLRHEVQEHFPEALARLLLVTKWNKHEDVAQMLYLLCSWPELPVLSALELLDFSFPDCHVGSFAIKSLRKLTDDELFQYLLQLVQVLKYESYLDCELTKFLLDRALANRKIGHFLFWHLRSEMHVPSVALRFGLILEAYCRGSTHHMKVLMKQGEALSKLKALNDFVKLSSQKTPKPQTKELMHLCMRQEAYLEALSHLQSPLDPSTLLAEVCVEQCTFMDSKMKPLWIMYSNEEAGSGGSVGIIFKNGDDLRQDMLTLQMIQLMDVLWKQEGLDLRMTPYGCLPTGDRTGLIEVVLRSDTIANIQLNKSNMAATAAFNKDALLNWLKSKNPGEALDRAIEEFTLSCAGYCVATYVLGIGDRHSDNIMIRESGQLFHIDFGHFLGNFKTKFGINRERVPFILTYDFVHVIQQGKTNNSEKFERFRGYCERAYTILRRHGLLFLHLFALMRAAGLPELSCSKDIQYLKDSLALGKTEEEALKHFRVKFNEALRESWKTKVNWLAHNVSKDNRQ
Method in brief: as §6

Row | Structure (SMILES) | Kd [1] [nM] | IC50 [2] [nM] | Kd [3] [nM] | Kd [4] [nM] | Kd [5] [nM] | IC50 [6] [nM] | Kd [7] [nM] | IC50 ([2]; Homo sapiens, PC-3, 1 h) [nM] | IC50 ([6]; Homo sapiens, PC-3, 1 h) [nM]
1 | CC(O)c1cc(C2CCCN2c2cc(F)cc(F)c2)c2nc(N3CCOCC3)cnc2c1 (single isomer, unassigned) [Compound 15] | 1 | 2 | > 30200 | 372 | 234 | 4 | 43 | – | –
2 | CC(Oc1cccc(F)c1)c1cc(C(=O)N(C)C)cc2ncc(N3CCOCC3)nc12 (racemic) [Compound 339] | 427 | > 513 | 16200 | 9330 | 5890 | > 513 | 2460 | – | –
3 | CC(Oc1cc(F)cc(F)c1)c1cc(C(=O)N(C)C)cc2ncc(N3CCOCC3)nc12 (single isomer, unassigned) [Compound 5] | 2 | 99 | 25100 | 7980 | 1590 | 100 | 225 | – | –
4 | CN(C)CCNC(=O)c1cc(NCc2cc(F)cc(F)c2)c2nc(N3CCOCC3)cnc2c1 [Compound 384] | 1 | – | 20000 | 15800 | 2690 | – | 575 | 7 | 20
5 | CC1CN(c2cnc3cc(C(=O)N(C)C)cc(C4CCCN4c4cc(F)cc(F)c4)c3n2)CCO1 (stereo not drawn) [Compound 36] | 2 | – | 15800 | 1590 | 224 | – | 107 | 5 | 10
6 | CN(Cc1cc(F)cc(F)c1)c1cc(C(=O)N2CCNC(C(F)(F)F)C2)cc2ncc(N3CCOCC3)nc12 (stereo not drawn) [Compound 319b] | 59 | – | > 30200 | > 30200 | 4370 | – | 1020 | > 513 | > 513
7 | CC(Nc1ccc(F)c(F)c1)c1cc(C(=O)NCC(C)(C)O)cc2ncc(N3CCOCC3)nc12 (single isomer, unassigned) [Compound 348b] | 1320 | > 513 | > 30200 | > 30200 | > 30200 | > 513 | 25700 | – | –
8 | CC(Nc1cc(F)c(F)c(F)c1)c1cc(C(=O)NCCN(C)C)cc2ncc(N3CCOCC3)nc12 (single isomer, unassigned) [Compound 309b] | 18 | 282 | > 30200 | 5620 | 4900 | 363 | 2340 | – | –
9 | CC(C)NCCNC(=O)c1cc(C(C)Nc2ccc(F)c(F)c2)c2nc(N3CCOCC3)cnc2c1 (single isomer, unassigned) [Compound 364a] | 1 | 26 | > 30200 | 6920 | 2460 | 35 | 204 | – | –
10 | CNCCN(C)C(=O)c1cc(C(C)Nc2cc(F)c(F)c(F)c2)c2nc(N3CCOCC3)cnc2c1 (single isomer, unassigned) [Compound 335a] | 0.2 | 2 | 18600 | 1220 | 466 | 5 | 33 | – | –
11 | CC(Oc1cc(F)cc(F)c1)c1cc(C(=O)N(C)C)cc2ncc(N3CCOCC3)nc12 (single isomer, unassigned) [Compound 6] | 1890 | > 513 | > 30200 | > 30200 | 26000 | > 513 | 16900 | – | –
12 | CC(Nc1cc(F)cc(F)c1)c1cc(-c2cc[nH]n2)cc2ncc(N3CCOCC3)nc12 (stereo not drawn) [Compound 304] | 62 | – | > 30200 | 20000 | 7240 | – | 6760 | 295 | > 513
13 | Cc1ccc(NC(C)c2cc(C(=O)NCCO)cc3ncc(N4CCOCC4)nc23)cc1F (single isomer, unassigned) [Compound 295a] | 288 | > 513 | 14500 | > 30200 | 6460 | > 513 | 6760 | – | –
14 | CNCCNC(=O)c1cc(C(C)Nc2cccc(F)c2)c2nc(N3CCOCC3)cnc2c1 (single isomer, unassigned) [Compound 139] | 41 | 249 | 18600 | 3430 | 3760 | 132 | 4420 | – | –
15 | CC(C)NCCNC(=O)c1cc(C(C)Oc2ccc(F)c(F)c2)c2nc(N3CCOCC3)cnc2c1 (single isomer, unassigned) [Compound 286a] | 182 | > 513 | 25700 | > 30200 | 10200 | > 513 | 5750 | – | –
16 | CN1CCN(C(=O)c2cc(C3CCCN3c3cc(F)cc(F)c3)c3nc(N4CCOCC4)cnc3c2)CC1 (single isomer, unassigned) [Compound 58] | 9 | 295 | > 30200 | 18600 | 2000 | > 513 | 912 | – | –
17 | CC(Nc1cc(F)cc(F)c1)c1cc(C(=O)N2CCC(NCC(F)(F)F)C2)cc2ncc(N3CCOCC3)nc12 (stereo not drawn) [Compound 217] | 4 | – | > 30200 | 24000 | 2140 | – | 1290 | 49 | 79
18 | CC(Nc1ccc(F)c(F)c1)c1cc(C(=O)N2CC[C@@H](O)C2)cc2ncc(N3CCOCC3)nc12 (stereo partly drawn) [Compound 300] | 4 | – | > 30200 | 17000 | 2690 | – | 513 | 85 | 71
19 | CC(Nc1cc(F)cc(F)c1)c1cc(C(=O)N2CCOCC2)cc2ncc(N3CCOCC3)nc12 (stereo not drawn) [Compound 7] | 2 | 21 | > 30200 | 10000 | 513 | 42 | 245 | – | –
20 | CC(Nc1cc(F)c(F)c(F)c1)c1cc(C(=O)N(C)C2CCNC2)cc2ncc(N3CCOCC3)nc12 (stereo not drawn) [Compound 296] | 1 | – | > 30200 | 6460 | 2950 | – | 166 | 14 | 42
21 | CC(Oc1ccc(Cl)c(F)c1)c1cc(C(=O)N(C)CCN(C)C)cc2ncc(N3CCOCC3)nc12 (single isomer, unassigned) [Compound 313a] | 3 | 166 | > 30200 | 26300 | 5010 | – | 851 | – | 257
